Values of other authors, collected in patent US20030018074A1, “Antiviral composition and treatment method” (priority 2001, published 2003).
Read-outs that look alike come from different tables or passages of the source.

How the values were obtained:
[1] = tested on: HSV-1 dorsal cutaneous infection; conditions: 5% in a branch chain ester base; guinea pigs
HSV-2 = conditions: for EC50: HSV-2, Vero cells, surfactant suspension, read-out: effective concentration required to inhibit plaque formation by 50% (EC50)
[2] = tested on: early viral protein synthesis
HSV-2 virus = conditions: incubation of HSV-2 with the suspension for 2 hours

For `CCCCCCCCCCCCCCCCCCCCCCCCCCCCCCO` [triacontanol, 1-triacontanol], the “efficacy for the treatment of HSV-1 dorsal cutaneous infection (in words)” value [1] is given as “a certain amount of efficacy”.

For `CCCCCCCC/C=C\CCCCCCCCCCCC(N)=O` [erucamide, cis-13-docosenoamide], the “percent inhibition of plaque formation” value (HSV-2; 0.03 mM) is listed as 34%, the “percent inhibition of plaque formation” value (HSV-2; 0.59 mM) is listed as 42% and the “percent inhibition of plaque formation” value (HSV-2; 0.89 mM) is listed as 44%. The “percent inhibition of plaque formation” value (HSV-2; 1.2 mM) was 58% and the “percent inhibition of plaque formation” value (HSV-2; 1.5 mM) was 68%.

For `CCCCCCCCCCCCCCCCCCCCCCO` [n-docosanol], the EC50 (HSV-2) is listed as 9 mM, the concentrations where effective (HSV-2; Vero cultures) is listed as 2 to 15 mM and the “inhibition of early viral protein synthesis” value [2] is listed as “more than 80%”.

For `CCCCCCCC/C=C\CCCCCCCCCCCCO` [erucyl alcohol, cis-13-docosen-1-ol], the “cellular toxicity (in words)” value (Vero cells; 1 mM) is given as “no cellular toxicity was observed”, the “toxicity to Vero cells (in words)” value (Vero cells; added to cultures at 2-15 mM) is given as “toxic to Vero cells” and the EC50 (HSV-2) is given as 0.15 mM. The “inhibition of HSV-2 plaque production” value (HSV-2; concentrations tolerable to the cells (≦1 mM)) was no more than 93%, the “EC50 lower than the concentration required for n-docosanol” value (HSV-2; ratio of EC50 n-docosanol to EC50 erucyl alcohol) was 60 fold and the “direct virucidal effect (in words)” value (HSV-2 virus) was “did not have a direct virucidal effect”.

For `CCCCCCCC/C=C/CCCCCCCCCCCCO` [brassidyl alcohol, trans-13-docosen-1-ol], the “cellular toxicity (in words)” value (Vero cells; compared with erucyl alcohol) is listed as “significantly less than that of erucyl alcohol”.

For `CCCCC/C=C\C/C=C\C/C=C\CCCCCO` [γ-linolenyl alcohol], the “inactivation of viruses, rank among C14 to C20 unsaturated alcohols (in words)” value (viruses) is listed as “most effective”.
